Assay results as given in US12344597B2, “Alkoxy-substituted pyridinyl derivatives as LPA1 receptor antagonists and their use in the treatment of fibrosis” (IDORSIA PHARMACEUTICALS LTD, priority 2018, dated 2025).

Target: human LPA1 receptor (Homo sapiens (Human), UniProt Q92633)
Test: Beta-arrestin recruitment assay to determine IC50 values for human LPAR1
Format: cell-based
Conditions: antagonist mode, Tango EDG2-bla U2OS cells, LPA 18:1 500 nM final
Procedure, shortened: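 Tango EDG2-bla U2OS cells: LPA-driven beta-arrestin/TEV protease recruitment releases Gal4-VP16, inducing beta-lactamase reporter read with live-cell substrate. Cells seeded 20 h at 37 °C beforehand. IC50 is antagonist concentration inhibiting 50% of maximal response.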

Sequence of human LPA1 receptor (Q92633 whole entry): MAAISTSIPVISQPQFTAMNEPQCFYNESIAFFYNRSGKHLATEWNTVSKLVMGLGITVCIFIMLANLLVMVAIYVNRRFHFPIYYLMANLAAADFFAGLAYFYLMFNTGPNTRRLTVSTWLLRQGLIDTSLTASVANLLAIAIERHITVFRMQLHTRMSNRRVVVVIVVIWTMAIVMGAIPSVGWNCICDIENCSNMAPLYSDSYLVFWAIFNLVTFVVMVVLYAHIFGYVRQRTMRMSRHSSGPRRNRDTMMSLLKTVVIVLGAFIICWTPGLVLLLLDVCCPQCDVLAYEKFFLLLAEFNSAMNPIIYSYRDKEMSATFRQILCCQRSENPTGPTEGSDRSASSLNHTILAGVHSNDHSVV

SMILES	IC50
Cc1ccc(NC(=O)C2(c3ccccc3C(C)C)CN(S(=O)(=O)c3[nH]ncc3C(=O)O)C2)c(OC(F)F)n1 [Ex 13-25, 5-((3-((2-(difluoromethoxy)-6-methylpyridin-3-yl)carbamoyl)-3-(2-isopropylphenyl)azetidin-1-yl)sulfonyl)-1H-pyrazole-4-carboxylic acid]	400 nM
CC(C)c1cccnc1C1(C(=O)Nc2ncc(Cl)cc2OC(F)F)CN(S(N)(=O)=O)C1 [Example 81-7, N-(5-chloro-3-(difluoromethoxy)pyridin-2-yl)-3-(3-isopropylpyridin-2-yl)-1-sulfamoylazetidine-3-carboxamide]	5 nM
Cc1ccc(NC(=O)C2(c3ccccc3C(C)C)CN(Cc3ccnc(C(=O)O)c3)C2)c(OC(F)F)n1 [Ex 11-51, 4-((3-((2-(difluoromethoxy)-6-methylpyridin-3-yl)carbamoyl)-3-(2-isopropylphenyl)azetidin-1-yl)methyl)picolinic acid]	41 nM
CC(C)c1ccccc1C1(C(=O)Nc2cccnc2OC(F)F)CN(S(=O)(=O)CCC(=O)OCc2ccccc2)C1 [Ex 13-9, benzyl 3-((3-((2-(difluoromethoxy)pyridin-3-yl)carbamoyl)-3-(2-isopropylphenyl)azetidin-1-yl)sulfonyl)propanoate]	37 nM
Cc1ccc(NC(=O)C2(c3ccccc3C(C)C)CN(CCCC(C)(C)O)C2)c(OC(F)F)n1 [Ex 11-66, N-(2-(difluoromethoxy)-6-methylpyridin-3-yl)-1-(4-hydroxy-4-methylpentyl)-3-(2-isopropylphenyl)azetidine-3-carboxamide]	14 nM
Cc1ccc(NC(=O)C2(c3ccccc3C(C)C)CN(C(=O)COCCOCC(=O)OCc3ccccc3)C2)c(OC(F)F)n1 [Ex 12-106, benzyl 2-(2-(2-(3-((2-(difluoromethoxy)-6-methylpyridin-3-yl)carbamoyl)-3-(2-isopropylphenyl)azetidin-1-yl)-2-oxoethoxy)ethoxy)acetate]	59 nM
Cc1ccc(NC(=O)C2(c3ccccc3C(C)C)CN(c3noc(O)n3)C2)c(OC(F)F)n1 [Ex 21, N-(2-(difluoromethoxy)-6-methylpyridin-3-yl)-1-(5-hydroxy-1,2,4-oxadiazol-3-yl)-3-(2-isopropylphenyl)azetidine-3-carboxamide]	12 nM
COC(=O)c1ccc(CN2CC(C(=O)Nc3ccc(C)nc3OC(F)F)(c3ccccc3C(C)C)C2)o1 [Ex 11-56, methyl 5-((3-((2-(difluoromethoxy)-6-methylpyridin-3-yl)carbamoyl)-3-(2-isopropylphenyl)azetidin-1-yl)methyl)furan-2-carboxylate]	64 nM
O=C(Nc1ncc(Cl)cc1OC(F)F)C1(c2ccccc2C2CCCC2)CNC1 [Ex 76, N-(5-chloro-3-(difluoromethoxy)pyridin-2-yl)-3-(2-cyclopentylphenyl)azetidine-3-carboxamide]	19 nM
Cc1ccc(NC(=O)C2(c3ccccc3C(C)C)CN(Cc3nc(CC(=O)O)co3)C2)c(OC(F)F)n1 [Ex 11-59, 2-(2-((3-((2-(difluoromethoxy)-6-methylpyridin-3-yl)carbamoyl)-3-(2-isopropylphenyl)azetidin-1-yl)methyl)oxazol-4-yl)acetic acid]	38 nM
Cc1ccc(NC(=O)C2(c3ccccc3C(C)C)CCN(C(=O)Cc3c[nH]nc3O)CC2)c(OC(F)F)n1 [Ex 12-27, N-(2-(difluoromethoxy)-6-methylpyridin-3-yl)-1-(2-(3-hydroxy-1H-pyrazol-4-yl)acetyl)-4-(2-isopropylphenyl)piperidine-4-carboxamide]	4 nM

Next, values leading:

IC50	SMILES
5.6 nM	Cc1ccc(NC(=O)C2(c3ccccc3C(C)C)CN(C(=O)Cn3nccn3)C2)c(OC(F)F)n1 [Ex 12-21, 1-(2-(2H-1,2,3-triazol-2-yl)acetyl)-N-(2-(difluoromethoxy)-6-methylpyridin-3-yl)-3-(2-isopropylphenyl)azetidine-3-carboxamide]
26 nM	Cc1ccc(NC(=O)C2(c3ccccc3C(C)C)CN(C(=O)CC3(C(=O)O)COC3)C2)c(OC(F)F)n1 [Ex 12-98, 3-(2-(3-((2-(difluoromethoxy)-6-methylpyridin-3-yl)carbamoyl)-3-(2-isopropylphenyl)azetidin-1-yl)-2-oxoethyl)oxetane-3-carboxylic acid]
5 nM	Cc1ccc(NC(=O)C2(c3ccccc3C(C)C)CN(C(=O)C(C)(C)CC(=O)O)C2)c(OC(F)F)n1 [Ex 12-91, 4-(3-((2-(difluoromethoxy)-6-methylpyridin-3-yl)carbamoyl)-3-(2-isopropylphenyl)azetidin-1-yl)-3,3-dimethyl-4-oxobutanoic acid]
19 nM	Cc1ccc(NC(=O)C2(c3ccccc3C(C)C)CN(C(=O)CCC(C)(C)C(=O)O)C2)c(OC(F)F)n1 [Ex 12-103, 5-(3-((2-(difluoromethoxy)-6-methylpyridin-3-yl)carbamoyl)-3-(2-isopropylphenyl)azetidin-1-yl)-2,2-dimethyl-5-oxopentanoic acid]
44 nM	COCCN(CC(=O)O)CC(=O)N1CC(C(=O)Nc2ccc(C)nc2OC(F)F)(c2ccccc2C(C)C)C1 [Ex 55]
14 nM	Cc1ccc(NC(=O)C2(c3ccccc3C(C)C)CN(C(=O)OC3(C(=O)O)CC3)C2)c(OC(F)F)n1 [Ex 14-8, 1-((3-((2-(difluoromethoxy)-6-methylpyridin-3-yl)carbamoyl)-3-(2-isopropylphenyl)azetidine-1-carbonyl)oxy)cyclopropane-1-carboxylic acid]
18 nM	COC(=O)/C=C/S(=O)(=O)N1CC(C(=O)Nc2ccc(C)nc2OC(F)F)(c2ccccc2C(C)C)C1 [Ex 13-20, methyl (E)-3-((3-((2-(difluoromethoxy)-6-methylpyridin-3-yl)carbamoyl)-3-(2-isopropylphenyl)azetidin-1-yl)sulfonyl)acrylate]

Tested on: LPA-induced skin vascular leakage
Test: mouse LPA-induced skin vascular leakage model
Format: in vivo
Conditions: mice, oral administration of 100 mg/kg, LPA-induced vascular leakage (Evans blue)
Description: Assessment of In Vivo Potency
The in vivo potency of the compounds of formulae (I), (II) and (III) can be determined using a mouse LPA-induced skin vascular leakage model. Female Balb/c mice are treated with either vehicle or test compound (p.o.) for at least 1 h prior to administration of the albumin marker Evans blue (50 mg/kg, i.v., 0.9% NaCl) and subsequent challenge with LPA (5 μg, i.d.). After 30 minutes, mice are sacrificed by CO2 inhalation. Discs of skin from the injection sites are removed, digested in formamide (500 μl, 37° C., 24 hrs) and the content of Evans blue quantified by colorimetric assay. Results are expressed as extravasated Evans blue per skin disc (μg/disc).
As an example, the compound of Ex 12-21 is able to effectively reduce LPA-induced vascular leakage after oral administration of 100 mg/kg to mice as compared to a group of animals treated with vehicle only. Reduction of vascular leakage compared to vehicle group was ≥60%.

SMILES	Reduction of vascular leakage compared to vehicle group
Cc1ccc(NC(=O)C2(c3ccccc3C(C)C)CN(C(=O)Cn3nccn3)C2)c(OC(F)F)n1 [Ex 12-21, 1-(2-(2H-1,2,3-triazol-2-yl)acetyl)-N-(2-(difluoromethoxy)-6-methylpyridin-3-yl)-3-(2-isopropylphenyl)azetidine-3-carboxamide]	≥ 60%
